pIC50: −log10 of the molar value.
Key:
[1] = test system: Brain; assay: Antioxidant activity in rat brain homogenate assessed as malondialdehyde release; assay type: functional, tissue-based
[2] = test system: Rattus norvegicus; assay: Antistress activity against food and water deprivation-induced stress in rat assessed as increase in thymus weight measured per 100 gm of body weight at 0.055 mmol/kg, ip after 3 hrs; assay type: functional
[3] = test system: Rattus norvegicus; assay: Antistress activity against food and water deprivation-induced stress in rat assessed as increase in adrenal weight measured per 100 gm of body weight at 0.055 mmol/kg, ip after 3 hrs; assay type: functional
[4] = test system: Rattus norvegicus; assay: Antistress activity against food and water deprivation-induced stress in rat assessed as increase in liver weight measured per 100 gm of body weight at 0.055 mmol/kg, ip after 3 hrs; assay type: functional
[5] = test system: Rattus norvegicus; assay: Antistress activity against food and water deprivation-induced stress in rat assessed as change in body weight at 0.055 mmol/kg, ip after 3 hrs; assay type: functional
[6] = test system: Rattus norvegicus; assay: Antistress activity against food and water deprivation-induced stress in rat assessed as decrease in uropepsinogen level in urine at 0.055 mmol/kg, ip after 3 hrs; assay type: functional
[7] = test system: Rattus norvegicus; assay: Antistress activity against food and water deprivation-induced stress in rat assessed as reduction in malondialdehyde formation at 0.055 mmol/kg, ip after 3 hrs; assay type: functional
[8] = test system: Rattus norvegicus; assay: Antihyperlipidemic activity in triton WR 1339 treated rat assessed as plasma total cholesterol at 56 umol/kg, ip measured after 24 hrs; assay type: functional
[9] = test system: Rattus norvegicus; assay: Antihyperlipidemic activity in triton WR 1339 treated rat assessed as LDL-cholesterol at 56 umol/kg, ip measured after 24 hrs; assay type: functional
[10] = test system: Rattus norvegicus; assay: Antihyperlipidemic activity in triton WR 1339 treated rat assessed as triglyceride at 56 umol/kg, ip measured after 24 hrs; assay type: functional
[11] = organism: Rattus norvegicus; assay: Antistress activity in rat assessed as decrease in stress-induced hepatic cytochrome P450 level by spectroscopically; assay type: functional; parameters: scale not given: the % may be the effect or the level left
[12] = organism: Rattus norvegicus; assay: Antistress activity in rat assessed as decrease in stress-induced oxidative N-demethylation of erythromycin; assay type: functional; parameters: scale not given: the % may be the effect or the level left

CC(C)(C)c1cc(C(=O)NCCCC(=O)OC2N=C(c3ccccc3Cl)c3cc(Cl)ccc3NC2=O)cc(C(C)(C)C)c1O (centres undefined)
pIC50 [1]: 4.62
Activity [2]: 151 mg
Activity [3]: 40 mg
Activity [4]: 4.5 mg
Activity [5]: -3.8%
Activity [6]: 30 kiloU/hr
Activity [7]: 41.2 nmol/mg
Activity [8]: 40%
Activity [9]: 40%
Activity [10]: 40%

Cc1c(C)c2c(c(C)c1O)CC[C@](C)(C(=O)NCCCC(=O)OC1N=C(c3ccccc3Cl)c3cc(Cl)ccc3NC1=O)O2 (some centres undefined)
pIC50 [1]: 5.96
Activity [2]: 117 mg
Activity [3]: 34 mg
Activity [4]: 4.2 mg
Activity [5]: -10%
Activity [6]: 34 kiloU/hr
Activity [7]: 37.5 nmol/mg
Activity [11]: 35%
Activity [12]: 40%
Activity [8]: 40%
Activity [9]: 40%
Activity [10]: 40%

Cc1c(C)c2c(c(C)c1O)CC[C@](C)(C(=O)O)O2 [(R)-TROLOX]
pIC50 [1]: 4.60

CC(C)(C)c1cc(C(=O)O)cc(C(C)(C)C)c1O
pIC50 [1]: 3.59

From ChEMBL document CHEMBL1154665, “Novel compounds designed as antistress agents” (J Med Chem, 2009)
